The source of these data is the SangsterLogP compilation.

Consider `CNC12CCC(CN)CC1Cc1ccccc12` (stereo not given), for which the log partition coefficient (logP) was found to be 1.84.
Compound `NC12CCC(CO)CC1Cc1ccccc12` (stereo not given) registered a logP of 0.93.
In the case of `CNC12CCCCC1Cc1ccccc12` (stereo not given), the logP came out at 3.37.
In turn, `CNC12CCCCCC1Cc1ccccc12` (stereo not given) registered a logP of 3.77.
As for `CNC12CCCCC1Cc1ccc(OC)cc12` (stereo not given), the logP was 3.54.
Under `CNC12CCC(CO)CC1Cc1ccccc12` (stereo not given) stands 1.41; under `NC12CCCCC1c1ccccc1C2` (stereo not given), 2.94; under `CNC12CCCCC1c1ccccc1C2` (stereo not given), 3.43.
The compound `CNCC1CCC2(NC)c3ccccc3CC2C1` (stereo not given) had a logP of 2.48.
Take `CNC12c3ccccc3CC1CCCC2C` (stereo not given): the lipophilicity (logP) was determined as 3.44.
Under `CCNC12c3ccccc3CC1CCCC2C` (stereo not given) stands 3.8; under `CNC12CC=CCC1c1ccccc1C2` (stereo not given), 3.28.
The compound `C=C1c2ccccc2C2(NC)CCCCC12` (stereo not given) yielded a logP of 3.79.
The compound `CNC12CCCCC1Cc1cc(OC)ccc12` (stereo not given) had a log partition coefficient (logP) of 3.51.
Consider `NC12CCCC1Cc1ccccc12` (stereo not given), for which the logP amounted to 2.58.
